Usually HC50 stands for the concentration that lyses half of the red blood cells.

These results are taken from patent US20240226228A1, “ANTIMICROBIAL PEPTOID HAVING IMPROVED SELECTIVITY AND ANTIMICROBIAL COMPOSITION COMPRISING SAME” (priority 2021, published 2024).

Converted amounts (≈) assume the structure as drawn. Read-outs that look alike come from different tables or passages of the source. Where a SMILES comes first, the peptide text is derived from it. [ ]: non-standard residue; d: D form. Gly(N(CH2)2(3-indolyl)) = O=C(O)CNCCc1c[nH]c2ccccc12; Nspe = C[C@H](NCC(=O)O)c1ccccc1; Nlys = NCCCCNCC(=O)O

Series [1] relates to Enterococcus Faecium KCTC 13225. The experiment in a line: MIC in multidrug-resistant bacteria, modified microdilution method. The series is classed as cell-based. To be noted: Table 14. The method, then:
(§1) The MIC of the prepared peptoid in multidrug-resistant bacteria was measured using a modified microdilution method in a Difco Mueller Hinton medium, and a test was performed on a bacterial pathogen panel with resistant and tolerance to general antibiotics.
(§2) Briefly, a medium containing bovine serum albumin and 0.001% acetic acid was used to continuously dilute a peptoid concentrate 10-times stronger than the final concentration. 10 uμL of the 10-time stronger peptoid concentrate and 90 μL of a Muleller Hinton medium were added to each well of a 96-well plate. Bacteria were added to the plate until the final concentration reached 2×10^5 CFU/mL and then incubated at […] overnight. MIC was defined as a concentration at which bacterial growth is not observed.

The next series deals with E. coli KCTC 2411. The series is described as above. Type of series: cell-based. To be noted: Table 14. The method, then:
as §1, §2

The test system of series [2] is Enterococcus faecalis KCTC 3511. The series is described as above. Type of series: cell-based. Particulars: Table 14. The method, then: as §1, §2
The test system of series [3] is Enterobacter SP KCTC 2625. Described as above. Type of series: cell-based. Particulars: Table 14. The method, then: as §1, §2
A further series relates to S. aureus ATCC 25923. Summed up: (§3)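 Cation-adjusted MHB2 cultures (18 h, subcultured 4 h) adjusted to 2×10^5–5×10^5 CFU/mL in medium with 0.02% BSA and 0.001% acetic acid.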
The subject of the next series is E. coli ATCC25922. Put shortly: as §3
Series [4] can be described thus: HPLC to confirm peptoid decomposition after counter ion substitution. The series is classed as physicochemical. Particulars: HPLC at 220 nm; HCl and AcOH. The procedure: FIGS. 76 to 83 are the HPLC results for Peptoids 1, 10, 11, 14, 15, 29, 32 and 37 of the present inventive concept to confirm the decomposition of the peptoids after counter ion substitution using (a) HCl and (b) AcOH.
Referring to FIGS. […], HPLC was performed for Peptoids 1, 10, 11, 14, 15, 29, 32 and 37 of the present inventive concept. Since the chloride (HCl) is a stronger acid than TFA, it can decompose acid-vulnerable peptoid compounds.

A short description of the next series: in vitro. Particulars: human, LC50 MRC-5. The procedure: Human lung cells (MRC-5) were purchased from the Korean Cell Line Bank, and human keratinocytes (HaCaT) were purchased from the AmorePacific R&D Center. All cells were grown in a Dulbecco's modified Eagle's medium containing 10% fetal bovine serum under conditions of 5% CO2 and 37° C. To confirm the effect of a peptoid on cell growth, 3-(4,5-dimethylthiazol-2-yl)-5-(3-carboxymethoxyphenyl)-2-(4-sulfophenyl)-2H-tetrazolium (MTS) cell assay was performed to determine cell viability. An aliquot (100 μL) of a batch including 1.3×10^4 MRC-5 cells/mL or 3×10^4 HaCaT cells/mL was dispensed into each well of a 96-well plate. The cells were grown at 37° C. in a 5% CO2 humid atmosphere and allowed to adhere for 24 hours. When the cells reached approximately 70% confluency, the medium was replaced with serial dilutions of the peptoid stock and incubated for 24 hours. 20 μL of a CellTiter 96 aqueous non-radioactive cell proliferation assay reagent (Promega, USA) including a tetrazolium compound was added to each well.
The contents in the plate were metabolized by incubating at 37° C. for 4 hours. An MTS-formazan product of viable cells was measured at 490 nm using a microplate reader, and cell viability (%) was calculated by Equation 2 below and compared with untreated cells.
Cell viability (%)=[A/(Acontrol)]×100 [Equation 2]
In Equation 2, A is the absorbance of a test well, and Acontrol is the average absorbance of a well containing untreated cells.
The term “nd” shown in Table 19 below is the abbreviation for not determined, and indicates a value that is too small or too large to be measured.

The subject of the next series is red blood cells. The experiment in a line: Hemolysis assay. The series is classed as cell-based, Sprague-Dawley mouse. Summed up: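 Peptoid is mixed with 10% (v/v) PBS-washed erythrocytes (male Sprague-Dawley […], 13 weeks) and held 1 h at 37 °C. Hemolysis is calculated from 540 nm absorbance of the supernatant, with PBS as 0% and Triton X-100 as 100%.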
Setting [5] is: Table 18, TFA salt vs counter ion-substituted (HCl, AcOH) peptoids.
The mark [6] stands for this setting: Tables 11-13, 24 hours at 37° C., maximum concentration 25 μM.

Take `C[C@@H](c1ccccc1)N(CC(=O)N(CCCCN)CC(=O)N(CC(=O)N(CC(=O)N(CCCCN)CC(=O)N(CC(=O)N(CC(=O)N(CCCCN)CC(=O)N(CCc1c[nH]c2ccccc12)CC(=O)N(CCc1c[nH]c2ccccc12)CC(N)=O)[C@@H](C)c1ccccc1)[C@@H](C)c1ccccc1)[C@@H](C)c1ccccc1)[C@@H](C)c1ccccc1)C(=O)CN(C(=O)CNCCCCN)[C@@H](C)c1ccccc1` [Peptoid 11, H-NLys-Nspe-Nspe-NLys-Nspe-Nspe-NLys-Nspe-Nspe-NLys-NhTrp-NhTrp-NH2] (H-[Nlys][Nspe][Nspe][Nlys][Nspe][Nspe][Nlys][Nspe][Nspe][Nlys][Gly(N(CH2)2(3-indolyl))][Gly(N(CH2)2(3-indolyl))]-NH2): the MIC Enterococcus Faecium KCTC 13225 in [1] is < 0.8 µM. Besides, in the series with E. coli KCTC 2411, the MIC E. coli KCTC 2411 worked out at 12.5 µM (≈ 23.7 µg/mL). For the same compound, the MIC Enterococcus faecalis KCTC 3511 in series [2] is < 0.8 µM. The compound also showed an MIC Enterobacter SP KCTC 2625 in series [3] of 6.3 µM (≈ 12 µg/mL). Besides, the “MIC S. aureus ATCC 25923” value is 1.6 µM with S. aureus ATCC 25923 (setting [5]) and 1.6 µM (≈ 3.04 µg/mL) in the series on S. aureus ATCC 25923 (setting [6]). Besides, the “MIC E. coli ATCC25922” value was determined as 3.1 µM in the series on E. coli ATCC25922 (setting [5]) and 6.3 µM (≈ 12 µg/mL) against E. coli ATCC25922 (setting [6]). Moreover, in series [4], the “peptoid decomposition after counter ion substitution (in words)” value is “almost no peptoid decomposition occurred”. Also, the CC50 at 24 h in the series “in vitro” was determined as 6.9 µM.

With `C[C@@H](c1ccccc1)N(CC(N)=O)C(=O)CN(C(=O)CN(CCCCN)C(=O)CN(C(=O)CN(C(=O)CN(CCCCN)C(=O)CN(C(=O)CN(C(=O)CN(CCCCN)C(=O)CN(CCc1c[nH]c2ccccc12)C(=O)CN(CCc1c[nH]c2ccccc12)C(=O)CNCCCCN)[C@@H](C)c1ccccc1)[C@@H](C)c1ccccc1)[C@@H](C)c1ccccc1)[C@@H](C)c1ccccc1)[C@@H](C)c1ccccc1` [Peptoid 14, H-NLys-NhTrp-NhTrp-NLys-Nspe-Nspe-NLys-Nspe-Nspe-NLys-Nspe-Nspe-NH2], the MIC Enterococcus Faecium KCTC 13225 in series [1] is < 0.8 µM. Further, the MIC E. coli KCTC 2411 against E. coli KCTC 2411 worked out at 6.3 µM (≈ 12 µg/mL). The MIC Enterococcus faecalis KCTC 3511 in series [2] was 1.6 µM (≈ 3.04 µg/mL). This compound had an MIC Enterobacter SP KCTC 2625 in series [3] of 3.1 µM (≈ 5.88 µg/mL). Besides, the “MIC S. aureus ATCC 25923” value was 1.6 µM in the series with S. aureus ATCC 25923 (setting [5]) and <0.8 µM in the series on S. aureus ATCC 25923 (setting [6]). Besides, the figures for the “MIC E. coli ATCC25922” value in the series with E. coli ATCC25922 (setting [5]) and against E. coli ATCC25922 (setting [6]) were 3.1 µM and 3.1 µM (≈ 5.88 µg/mL), respectively. Besides, the “peptoid decomposition after counter ion substitution (in words)” value in series [4] is “almost no peptoid decomposition occurred”. For the same compound, the HC10 in the series with red blood cells is 12.5 µM; with red blood cells (Tables 11-13, concentration that induces hemolysis in 10% red blood cells), 23.6 µM. Further, the HC50 in the series with red blood cells worked out at 21.1 µM; with red blood cells (Tables 11-13, concentration that induces hemolysis in 50% red blood cells), 43.4 µM. The CC50 at 24 h in the series “in vitro” came to 9.7 µM.
